From paper PMC6414696 (mBio, 2019)
Converted amounts (≈) assume the structure as drawn. Read-outs that look alike come from different tables or passages of the source.

Tests used:
[1] = test system: A. baumannii clinical isolates; experiment: microbe, parasite or virus in culture; format: cell-based, Acinetobacter baumannii; conditions: for MIC: Acinetobacter baumannii
[2] = test system: A. baumannii (ATCC 17978); format: cell-based, Acinetobacter baumannii; conditions: ETX2514 at 4 mg/liter in combination
A. nosocomialis (M2) = format: cell-based, Acinetobacter nosocomialis; conditions: ETX2514 at 4 mg/liter in combination
A. baumannii ARC5955 [3] = experiment: Neutropenic murine thigh infection model; format: in vivo; conditions: thigh tissue, CD-1 mice, 24 h after initiation of therapy, 75 mg/kg SC/q3h; for Change in log10 CFU/g: 75 mg/kg
OXA-66 β-lactamase = OXA-66 β-lactamase (Acinetobacter baumannii, UniProt Q58XD2); experiment: β-Lactamase steady-state kinetic analysis, OXA-66; format: biochemical, A. baumannii; conditions: OXA-66; data not shown
OXA-66 β-lactamase, sequence (Q58XD2 entry or part of it): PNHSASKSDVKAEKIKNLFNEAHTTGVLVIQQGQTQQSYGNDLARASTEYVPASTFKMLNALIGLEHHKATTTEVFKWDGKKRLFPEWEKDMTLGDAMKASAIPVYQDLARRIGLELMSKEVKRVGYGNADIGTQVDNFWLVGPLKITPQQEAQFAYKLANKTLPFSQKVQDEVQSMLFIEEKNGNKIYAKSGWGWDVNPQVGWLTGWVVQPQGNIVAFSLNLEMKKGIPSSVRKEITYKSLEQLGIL

A. baumannii isolates = conditions: panel of A. baumannii isolates in a previous study; cited from earlier work
A. baumannii ARC5955 [4] = conditions: A. baumannii ARC5955 carrying blaTEM-1, blaADC-82, blaOXA-23, blaOXA-66; cited from earlier work

CC1(C)[C@H](C(=O)O)N2C(=O)C[C@H]2S1(=O)=O [Sulbactam]
MIC90 ([1]; 72 WRAMC A. baumannii isolates, ETX2514 at 4 mg/liter in combination): 32 µg/mL
isolates resistant (MIC ≥ 16 mg/liter) ([1]; 72 WRAMC isolates (34/72)): 47%
MIC ([1]; strain AB001, ETX2514 at 4 mg/liter in combination): 16 µg/mL
MIC ([1]; strain AB002, ETX2514 at 4 mg/liter in combination): 8 µg/mL
MIC ([1]; strain AB003, ETX2514 at 4 mg/liter in combination): 8 µg/mL
MIC ([1]; strain AB004, ETX2514 at 4 mg/liter in combination): 4 µg/mL
MIC ([1]; strain AB005, ETX2514 at 4 mg/liter in combination): 4 µg/mL
MIC ([1]; strain AB006, ETX2514 at 4 mg/liter in combination): 4 µg/mL
MIC ([1]; strain AB007, ETX2514 at 4 mg/liter in combination): 4 µg/mL
MIC ([1]; strain AB008, ETX2514 at 4 mg/liter in combination): 4 µg/mL
MIC ([1]; strain AB009, ETX2514 at 4 mg/liter in combination): 4 µg/mL
MIC ([1]; strain AB010, ETX2514 at 4 mg/liter in combination): 4 µg/mL
MIC ([1]; strain AB011, ETX2514 at 4 mg/liter in combination): 8 µg/mL
MIC ([1]; strain AB012, ETX2514 at 4 mg/liter in combination): 4 µg/mL
MIC ([1]; strain AB013, ETX2514 at 4 mg/liter in combination): 4 µg/mL
MIC ([1]; strain AB014, ETX2514 at 4 mg/liter in combination): 4 µg/mL
MIC ([1]; strain AB015, ETX2514 at 4 mg/liter in combination): 4 µg/mL
MIC ([1]; strain AB016, ETX2514 at 4 mg/liter in combination): 4 µg/mL
MIC ([1]; strain AB017, ETX2514 at 4 mg/liter in combination): 32 µg/mL
MIC ([1]; strain AB018, ETX2514 at 4 mg/liter in combination): 64 µg/mL
MIC ([1]; strain AB019, ETX2514 at 4 mg/liter in combination): 16 µg/mL
MIC ([1]; strain AB020, ETX2514 at 4 mg/liter in combination): 16 µg/mL
MIC ([1]; strain AB021, ETX2514 at 4 mg/liter in combination): 16 µg/mL
MIC ([1]; strain AB022, ETX2514 at 4 mg/liter in combination): 16 µg/mL
MIC ([1]; strain AB023, ETX2514 at 4 mg/liter in combination): 16 µg/mL
MIC ([1]; strain AB024, ETX2514 at 4 mg/liter in combination): 16 µg/mL
MIC ([1]; strain AB025, ETX2514 at 4 mg/liter in combination): 16 µg/mL
MIC ([1]; strain AB026, ETX2514 at 4 mg/liter in combination): 16 µg/mL
MIC ([1]; strain AB027, ETX2514 at 4 mg/liter in combination): 16 µg/mL
MIC ([1]; strain AB028, ETX2514 at 4 mg/liter in combination): 16 µg/mL
MIC ([1]; strain AB029, ETX2514 at 4 mg/liter in combination): 16 µg/mL
MIC ([1]; strain AB030, ETX2514 at 4 mg/liter in combination): 16 µg/mL
MIC ([1]; strain AB031, ETX2514 at 4 mg/liter in combination): 16 µg/mL
MIC ([1]; strain AB032, ETX2514 at 4 mg/liter in combination): 16 µg/mL
MIC ([1]; strain AB033, ETX2514 at 4 mg/liter in combination): 64 µg/mL
MIC ([1]; strain AB034, ETX2514 at 4 mg/liter in combination): 16 µg/mL
MIC ([1]; strain AB035, ETX2514 at 4 mg/liter in combination): 16 µg/mL
MIC ([1]; strain AB036, ETX2514 at 4 mg/liter in combination): 16 µg/mL
MIC ([1]; strain AB037, ETX2514 at 4 mg/liter in combination): 64 µg/mL
MIC ([1]; strain AB038, ETX2514 at 4 mg/liter in combination): 16 µg/mL
MIC ([1]; strain AB039, ETX2514 at 4 mg/liter in combination): 4 µg/mL
MIC ([1]; strain AB040, ETX2514 at 4 mg/liter in combination): 32 µg/mL
MIC ([1]; strain AB041, ETX2514 at 4 mg/liter in combination): 16 µg/mL
MIC ([1]; strain AB042, ETX2514 at 4 mg/liter in combination): 4 µg/mL
MIC ([1]; strain AB043, ETX2514 at 4 mg/liter in combination): 4 µg/mL
MIC ([1]; strain AB044, ETX2514 at 4 mg/liter in combination): 4 µg/mL
MIC ([1]; strain AB045, ETX2514 at 4 mg/liter in combination): 2 µg/mL
MIC ([1]; strain AB046, ETX2514 at 4 mg/liter in combination): 4 µg/mL
MIC ([1]; strain AB047, ETX2514 at 4 mg/liter in combination): 4 µg/mL
MIC ([1]; strain AB048, ETX2514 at 4 mg/liter in combination): 4 µg/mL
MIC ([1]; strain AB049, ETX2514 at 4 mg/liter in combination): 4 µg/mL
MIC ([1]; strain AB050, ETX2514 at 4 mg/liter in combination): 4 µg/mL
MIC ([1]; strain AB051, ETX2514 at 4 mg/liter in combination): 2 µg/mL
MIC ([1]; strain AB052, ETX2514 at 4 mg/liter in combination): 64 µg/mL
MIC ([1]; strain AB053, ETX2514 at 4 mg/liter in combination): 32 µg/mL
MIC ([1]; strain AB054, ETX2514 at 4 mg/liter in combination): 64 µg/mL
MIC ([1]; strain AB055, ETX2514 at 4 mg/liter in combination): 16 µg/mL
MIC ([1]; strain AB056, ETX2514 at 4 mg/liter in combination): 8 µg/mL
MIC ([1]; strain AB057, ETX2514 at 4 mg/liter in combination): 16 µg/mL
MIC ([1]; strain AB058, ETX2514 at 4 mg/liter in combination): 32 µg/mL
MIC ([1]; strain AB059, ETX2514 at 4 mg/liter in combination): 32 µg/mL
MIC ([1]; strain AB060, ETX2514 at 4 mg/liter in combination): 8 µg/mL
MIC ([1]; strain AB061, ETX2514 at 4 mg/liter in combination): 8 µg/mL
MIC ([1]; strain AB062, ETX2514 at 4 mg/liter in combination): 8 µg/mL
MIC ([1]; strain AB063, ETX2514 at 4 mg/liter in combination): 32 µg/mL
MIC ([1]; strain AB064, ETX2514 at 4 mg/liter in combination): 8 µg/mL
MIC ([1]; strain AB065, ETX2514 at 4 mg/liter in combination): 8 µg/mL
MIC ([1]; strain AB066, ETX2514 at 4 mg/liter in combination): 4 µg/mL
MIC ([1]; strain AB067, ETX2514 at 4 mg/liter in combination): 4 µg/mL
MIC ([1]; strain AB068, ETX2514 at 4 mg/liter in combination): 4 µg/mL
MIC ([1]; strain AB069, ETX2514 at 4 mg/liter in combination): 4 µg/mL
MIC ([1]; strain AB070, ETX2514 at 4 mg/liter in combination): 32 µg/mL
MIC ([1]; strain AB071, ETX2514 at 4 mg/liter in combination): 8 µg/mL
MIC ([1]; strain AB072, ETX2514 at 4 mg/liter in combination): 4 µg/mL
MIC ([1]; strain CCF 1MR, carbapenem resistant, ETX2514 at 4 mg/liter in combination): 32 µg/mL
MIC ([1]; strain CCF 2MR, carbapenem resistant, ETX2514 at 4 mg/liter in combination): 16 µg/mL
MIC ([1]; strain CCF 3MR, carbapenem resistant, ETX2514 at 4 mg/liter in combination): 4 µg/mL
MIC ([1]; strain CCF 4MR, carbapenem resistant, ETX2514 at 4 mg/liter in combination): 16 µg/mL
MIC ([1]; strain CCF 5MR, carbapenem resistant, ETX2514 at 4 mg/liter in combination): 16 µg/mL
MIC ([1]; strain CCF 6MR, carbapenem resistant, ETX2514 at 4 mg/liter in combination): 16 µg/mL
MIC ([1]; strain CCF 7MR, carbapenem resistant, ETX2514 at 4 mg/liter in combination): 32 µg/mL
MIC ([1]; strain CCF 8MR, carbapenem resistant, ETX2514 at 4 mg/liter in combination): 8 µg/mL
MIC ([1]; strain UH AB202, carbapenem resistant, ETX2514 at 4 mg/liter in combination): 16 µg/mL
MIC ([1]; strain UH AB461, carbapenem resistant, ETX2514 at 4 mg/liter in combination): 8 µg/mL
MIC ([1]; strain UH AB477, carbapenem resistant, ETX2514 at 4 mg/liter in combination): 16 µg/mL
MIC ([1]; strain UH AB487, carbapenem resistant, ETX2514 at 4 mg/liter in combination): 16 µg/mL
MIC ([1]; strain UH AB489, carbapenem resistant, ETX2514 at 4 mg/liter in combination): 16 µg/mL
MIC ([1]; strain UH AB490, carbapenem resistant, ETX2514 at 4 mg/liter in combination): 16 µg/mL
MIC ([1]; strain UH AB491, carbapenem resistant, ETX2514 at 4 mg/liter in combination): 16 µg/mL
MIC ([1]; strain UH AB636, carbapenem resistant, ETX2514 at 4 mg/liter in combination): 16 µg/mL
MIC ([1]; strain UH AB660, carbapenem resistant, ETX2514 at 4 mg/liter in combination): 16 µg/mL
MIC ([1]; strain UH AB667, carbapenem resistant, ETX2514 at 4 mg/liter in combination): 32 µg/mL
MIC ([1]; strain VA-432, carbapenem resistant, ETX2514 at 4 mg/liter in combination): 16 µg/mL
MIC ([1]; strain VA-433, carbapenem resistant, ETX2514 at 4 mg/liter in combination): 16 µg/mL
MIC ([1]; strain VA-434, carbapenem resistant, ETX2514 at 4 mg/liter in combination): 16 µg/mL
MIC ([1]; strain VA-435, carbapenem resistant, ETX2514 at 4 mg/liter in combination): 16 µg/mL
MIC ([1]; strain VA-436, carbapenem resistant, ETX2514 at 4 mg/liter in combination): 16 µg/mL
MIC ([1]; strain VA-437, carbapenem resistant, ETX2514 at 4 mg/liter in combination): 8 µg/mL
MIC ([1]; strain VA-438, carbapenem resistant, ETX2514 at 4 mg/liter in combination): 8 µg/mL
MIC ([1]; strain VA-505, carbapenem resistant, ETX2514 at 4 mg/liter in combination): 8 µg/mL
MIC ([2]; ATCC 17978 ΔadeB/ΔadeJ): 1 µg/mL
MIC ([2]; ATCC 17978 ΔadeB): 1 µg/mL
MIC ([2]; ATCC 17978 ΔadeJ): 1 µg/mL
MIC (A. nosocomialis (M2); M2 WT): 2 µg/mL
MIC (A. nosocomialis (M2); M2 ΔadeB/ΔadeJ): 2 µg/mL
MIC (A. nosocomialis (M2); M2 ΔadeJ): 2 µg/mL
Log10 CFU/g (A. baumannii ARC5955 [3]): 9.0 log10 CFU/g
Change in log10 CFU/g (A. baumannii ARC5955 [3]): 2.5 log10 CFU/g
Change in log10 CFU/g (A. baumannii ARC5955 [3]; listed as sulbactam): > 2 log10 CFU/g
substrate quality for the enzyme (OXA-66 β-lactamase): very poor substrate
MIC90 (A. baumannii isolates): 64 µg/mL (≈ 274 µM)
MIC (A. baumannii ARC5955 [4]): 64 µg/mL (≈ 274 µM)
